# Measurements: ChEMBL document CHEMBL1132407, “Combinatorial library of serine and cysteine protease inhibitors that interact with both the S and S' binding sites” (J Med Chem, 1999)
# Key:
# [1] = target: T1, Papain (Carica papaya, UniProt P00784); assay: Inhibitory activity against papain
# T1 sequence (P00784 whole entry): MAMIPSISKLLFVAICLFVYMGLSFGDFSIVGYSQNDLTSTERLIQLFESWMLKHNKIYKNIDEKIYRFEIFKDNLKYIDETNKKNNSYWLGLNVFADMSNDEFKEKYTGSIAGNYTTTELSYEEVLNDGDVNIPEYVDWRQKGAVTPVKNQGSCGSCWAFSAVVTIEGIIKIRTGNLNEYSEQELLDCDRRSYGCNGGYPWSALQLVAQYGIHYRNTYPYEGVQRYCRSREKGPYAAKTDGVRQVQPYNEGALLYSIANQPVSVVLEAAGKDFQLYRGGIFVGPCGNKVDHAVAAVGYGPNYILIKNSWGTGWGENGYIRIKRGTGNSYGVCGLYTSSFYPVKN
# [2] = target: Plasminogen (Homo sapiens, UniProt P00747); assay: Inhibitory activity against plasmin
# [3] = target: Cathepsin B (Homo sapiens, UniProt P07858); assay: Inhibitory activity against Cathepsin B
# Plasminogen, sequence (P00747 97-580 limits assumed): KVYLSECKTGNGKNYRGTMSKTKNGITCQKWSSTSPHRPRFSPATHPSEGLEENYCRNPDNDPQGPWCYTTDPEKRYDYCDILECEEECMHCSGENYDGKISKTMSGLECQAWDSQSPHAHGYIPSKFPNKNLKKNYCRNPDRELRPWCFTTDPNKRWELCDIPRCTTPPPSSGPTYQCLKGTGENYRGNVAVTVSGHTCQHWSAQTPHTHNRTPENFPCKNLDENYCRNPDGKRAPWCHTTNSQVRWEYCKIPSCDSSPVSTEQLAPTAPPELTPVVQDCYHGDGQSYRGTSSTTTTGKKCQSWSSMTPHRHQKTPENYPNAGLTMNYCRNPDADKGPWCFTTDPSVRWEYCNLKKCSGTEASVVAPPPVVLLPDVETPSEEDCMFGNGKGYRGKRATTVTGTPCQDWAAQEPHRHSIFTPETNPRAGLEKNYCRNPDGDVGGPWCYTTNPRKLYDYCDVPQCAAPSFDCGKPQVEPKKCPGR
# Plasminogen, sequence (P00747 581-810 limits assumed): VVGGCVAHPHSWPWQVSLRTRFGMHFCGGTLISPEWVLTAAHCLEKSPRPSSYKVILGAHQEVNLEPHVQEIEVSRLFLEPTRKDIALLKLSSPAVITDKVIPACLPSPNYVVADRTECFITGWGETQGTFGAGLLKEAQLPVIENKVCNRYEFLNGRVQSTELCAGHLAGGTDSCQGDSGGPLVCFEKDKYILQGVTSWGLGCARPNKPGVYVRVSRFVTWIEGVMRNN
Ki [1],Ki [2],Ki [3],Compound
,10 µM,,O=C(CC[C@H]1CCC[C@@H](NC(=O)[C@H](Cc2c[nH]c3ccccc23)NC(=O)OCc2ccccc2)C1=O)N[C@@H](Cc1c[nH]c2ccccc12)C(=O)O (stereo in doubt)
380 µM,5 µM,,O=C(CC[C@H]1CCC[C@@H](NC(=O)[C@H](Cc2c[nH]c3ccccc23)NC(=O)OCc2ccccc2)C1=O)N[C@@H](Cc1c[nH]c2ccccc12)C(=O)O (stereo in doubt; 15A)

# Second part, the compound before the results:
Compound,Ki [1],Ki [2],Ki [3]
O=C(CC[C@H]1CCC[C@@H](NC(=O)[C@H](Cc2c[nH]c3ccccc23)NC(=O)OCc2ccccc2)C1=O)N[C@@H](Cc1ccccc1)C(=O)O (stereo in doubt; 16A),250 µM,100 µM,
O=C(CC[C@H]1CCC[C@@H](NC(=O)[C@H](Cc2ccccc2)NC(=O)OCc2ccccc2)C1=O)N[C@@H](Cc1ccccc1)C(=O)O,870 µM,3000 µM,1100 µM
O=C(CC[C@H]1CCC[C@@H](NC(=O)[C@H](Cc2c[nH]c3ccccc23)NC(=O)OCc2ccccc2)C1=O)N[C@@H](Cc1ccccc1)C(=O)O (stereo in doubt; 16B),,150 µM,
O=C(CC[C@H]1CCC[C@@H](NC(=O)[C@H](Cc2ccccc2)NC(=O)OCc2ccccc2)C1=O)N[C@@H](Cc1c[nH]c2ccccc12)C(=O)O,490 µM,420 µM,
